The series can be described thus: physchem. To be noted: water.

A value given as a limit tells only on which side of the number the result lay.

What is called solubility is the dissolved amount per volume that the medium holds. `N=C(N)NCCCC(N)C(=O)NCCCN1CCN(CCCNC(=O)C(N)CCCNC(=N)N)CC1` (stereo not shown) [formula V, 2-Amino-5-guanidino-pentanoic acid (3-{4-[3-(2-amino-5-guanidino-pentanoylamino)-propyl]-piperazin-1-yl}-propyl)-amide] returned a solubility greater than 100 mg/mL.

For the origin of these results see US9999690B2, “Labeled compounds and methods of imaging, diagnosing cartilage disorders and diseases, and monitoring cartilage health using labeled and unlabeled compounds” (Perosphere Inc., priority 2013, dated 2018).
